Results taken from patent US12514806B2, “Cosmetic composition comprising ceramides and sphingolipid” (Croda Korea Ltd, priority 2022, dated 2026).

Columns and labels:
Assay type in all cases: cell-based
aquaporin 3 = assay: Aquaporin 3 expression in 3D skin model by immunofluorescence; conditions: Experimental Example 4; creams including 0.01% and 0.1% of EOP on 3D skin model; compared to control; concentration-dependent; FIGS. 11-12
Description: (§1) To verify the difference in skin moisturizing according to a ceramide content ratio, each of the creams of Examples 1 to 16 was applied to 3D skin model (EPI-201) manufactured by MatTek, and then the expression of aquaporin 3 and filaggrin was examined.
(§2) Aquaporin 3 expression and filaggrin expression were analyzed by immunofluorescence. Specifically, after the 3D skin model was treated with each of the creams of Examples 1 to 16, the 3D skin model was incubated for 48 hours, and then each cream was washed out with PBS. The 3D skin model was put into a cassette and fixed with 10% formalin, and then made into a paraffin block through dehydration, transparency, penetration, and embedding processes. For deparaffinization, slides were prepared by sectioning to 3 μm, and then paraffin was melted in a dry oven at 60° C. for 30 minutes. […] After DAPI mounting, the slides were observed using a fluorescence microscope, and the results thereof are illustrated in FIGS. 1 to 4. […]
(§3) The moisturizing and barrier factors were analyzed by immunofluorescence in the same manner as in Experimental Example 1, and the results thereof are illustrated in FIGS. 11 and 12. […]
(§4) The moisturizing factors were analyzed by immunofluorescence in the same manner as in Experimental Example 1, and the results thereof are illustrated in FIGS. 15 to 18.

ceramide = assay: Amount of ceramide in 3D skin model by immunofluorescence; conditions: Experimental Example 4; creams including 0.01% and 0.1% of EOP on 3D skin model; compared to control; FIGS. 11-12
Description: as §2, with “minutes. Then, the slides were treated with xylene for 15 minutes, 100% ethanol for 5 minutes, 95% ethanol for 5 minutes, and 70% ethanol for 5 minutes, and washed with tap water. Antigen retrieval was carried out by boiling for 10 minutes in citrate buffer in a cooker, followed by cooling in running water. After treatment with 0.5% Triton X-100 for 15 minutes, the slides were washed three times with PBS buffer for 5 minutes.” for “minutes.”
The moisturizing and barrier factors were analyzed by immunofluorescence in the same manner as in Experimental Example 1, and the results thereof are illustrated in FIGS. 11 and 12.

filaggrin = assay: Filaggrin expression in 3D skin model by immunofluorescence; conditions: Experimental Example 4; creams including 0.01% and 0.1% of EOP on 3D skin model; compared to control; concentration-dependent; FIGS. 11-12
Description: as §1, §2, §3, §4

ceramide EOP
increased: amount of aquaporin 3 (aquaporin 3) | amount of ceramide (ceramide) | amount of filaggrin (filaggrin)
